Measurements as given in US8809352B2, “Sulfonamides as inhibitors of Bcl-2 family proteins for the treatments of cancer” (Novartis AG, priority 2009, dated 2014).

Target: BCL2 (Homo sapiens, UniProt P10415)
Experiment: Biacore SPR solution inhibition assay of BCL-2 binding to peptide derivatized sensor surfaces
Settings: SPR competition; 56 nM BCL2 pre-equilibrated with compound one hour; biotinylated BAK, BAD and NOXA peptide surfaces; 25° C.
From the text: The present method includes utility of a Surface plasmon resonance (SPR)-based biosensor (Biacore™ GE Healthcare, Uppsala, Sweden) to characterize BCL-2 inhibitors.
Biacore™ utilizes the phenomenon of surface plasmon resonance (SPR) to detect and measure binding interactions. In a typical Biacore experiment, one of the interacting molecules (ligand) is immobilized on a flexible dextran matrix while the interacting partner (analyte) is allowed to flow across that surface. A binding interaction results in an increase in mass on the sensor surface and a corresponding direct change in the refractive index of the medium in the vicinity of the sensor surface. Changes in refractive index or signal are recorded in resonance units (R.U.) Signal changes due to association and dissociation of complexes are monitored in a non-invasive manner, continuously and in real-time, the results of which are reported in the form of a sensorgram. The SPR assay is configured to examine solution inhibition of BCL-2 binding to peptide derivatized sensor surfaces to generate […] values as a measure of inhibitor potency.
Biacore™ A100 (GE Healthcare, Uppsala, Sweden) was used to conduct all experiments reported herein. Sensor surface preparation and all interaction analyses experiments were performed at 25° C. Reagents were purchased from GE Healthcare. Running buffer containing 10 mM Hepes, pH7.4, 150 mM sodium chloride, 1.25 mM Dithiothreitol, 3% Dimethyl sulfoxide and 0.05% polysorbate 20 were utilized throughout all analyses.
Biotinylated BAK, BAD and NOXA peptides were diluted to 10 nM in running buffer and captured onto a sensor surface pre-derivatized with streptavidin (sensor chip SA) to peptide surface densities in the range 50-100 R.U. Peptide captured surfaces were blocked with 500 μM PEO2-Biotin.
Interaction analyses were performed by first equilibrating each sample within a 6 point three fold compound dilution series in the range 16 μM to 0.004 nM with 56 nM BCL2 for one hour during instrument start-up procedures. Protein compound mixtures were then injected over each peptide surface in parallel for 60 seconds at a flow-rate of 30 μL/min. 56 nM BCL2 control samples were also prepared and run at regular intervals during the assay. Surface regeneration was performed at the end of each analysis cycle by two 30 second injections of 10 mM Glycine, pH 2.5, 1M Sodium Chloride, 0.05% polysorbate 20. Samples and control compound samples were run in duplicate and controls are also run at regular intervals during the assay to monitor surface and assay performance.
Data analyses are carried out using Biacore™ A100 evaluation software v1.1 to validate assay quality. Binding level report points were used relative to BCL2 control samples to calculate % inhibition values for each compound protein mixture.

Sequence of BCL2 (P10415 whole entry): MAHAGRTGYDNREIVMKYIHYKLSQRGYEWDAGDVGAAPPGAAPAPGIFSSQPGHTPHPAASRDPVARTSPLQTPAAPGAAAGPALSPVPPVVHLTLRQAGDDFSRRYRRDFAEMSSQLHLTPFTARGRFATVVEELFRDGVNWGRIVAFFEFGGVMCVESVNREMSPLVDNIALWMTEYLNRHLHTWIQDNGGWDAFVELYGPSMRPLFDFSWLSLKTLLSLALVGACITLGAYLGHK

| SMILES | IC50 |
| --- | --- |
| CCC[C@H](CSc1ccccc1)Nc1ccc(S(=O)(=O)Nc2ncnc3c2CCN(C2CCN(CC4=C(c5ccc(Cl)cc5)CC(C)(C)CC4)CC2)C3)cc1S(=O)(=O)C(F)(F)F [Example 59, N-(7-(1-((2-(4-chlorophenyl)-4,4-dimethylcyclohex-1-enyl)methyl)piperidin-4-yl)-5,6,7,8-tetrahydropyrido[3,4-d]pyrimidin-4-yl)-4-(1-(phenylthio)pentan-2-ylamino)-3-(trifluoromethylsulfonyl)benzenesulfonamide] | 579 nM |
| [2H]C1(N2CCc3c(ncnc3NS(=O)(=O)c3ccc(N[C@H](CCN4CC5CCC(C4)O5)CSc4ccccc4)c(S(=O)(=O)C(F)(F)F)c3)C2)CCN(CC2=C(c3ccc(Cl)cc3)CC(C)(C)CC2)CC1 [Example 81, 4-((2R)-4-(8-oxa-3-azabicyclo[3.2.1]octan-3-yl)-1-(phenylthio)butan-2-ylamino)-N-(7-(1-((2-(4-chlorophenyl)-4,4-dimethylcyclohex-1-enyl)methyl)-4-deuteropiperidin-4-yl)-5,6,7,8-tetrahydropyrido[3,4-d]pyrimidin-4-yl)-3-(trifluoromethylsulfonyl)-benzenesulfonamide] | 312 nM |
| CN(C)CC[C@H](CSc1ccccc1)Nc1ccc(S(=O)(=O)Nc2ncnc3c2CCN(C2CCN(Cc4ccccc4-c4cccc(Cl)c4)CC2)C3)cc1S(=O)(=O)C(F)(F)F [Example 97, N-{7-[1-(3′-Chloro-biphenyl-2-ylmethyl)-piperidin-4-yl]-5,6,7,8-tetrahydro-pyrido[3,4-d]pyrimidin-4-yl}-4-((R)-3-dimethylamino-1-phenylsulfanylmethyl-propylamino)-3-trifluoromethanesulfonyl-benzenesulfonamide] | 49 nM |
| CN(C)CC[C@H](CSc1cc(Cl)cc(Cl)c1)Nc1ccc(S(=O)(=O)Nc2ncnc3c2CCN(C2CCN(Cc4ccccc4-c4ccc(Cl)cc4)CC2)C3)cc1S(=O)(=O)C(F)(F)F [Example 41, (R)-N-(7-(1-((4′-chlorobiphenyl-2-yl)-methyl)piperidin-4-yl)-5,6,7,8-tetrahydropyrido[3,4-c]pyrimidin-4-yl)-4-(1-(3,5-dichlorophenylthio)-4-(dimethylamino)butan-2-ylamino)-3-(trifluoromethylsulfonyl)benzenesulfonamide] | 259 nM |
| [2H]C1(N2CCc3c(nc(N(C)C)nc3NS(=O)(=O)c3ccc(N[C@H](CCN4CCN(C)CC4)CSc4ccccc4F)c(S(=O)(=O)C(F)(F)F)c3)C2)CCN(CC2=C(c3ccc(Cl)cc3)CC(C)(C)CC2)CC1 [Example 75, (R)-N-(7-(1-((2-(4-chlorophenyl)-4,4-dimethylcyclohex-1-enyl)methyl)-4-deuteropiperidin-4-yl)-2-(dimethylamino)-5,6,7,8-tetrahydropyrido[3,4-d]pyrimidin-4-yl)-4-(1-(2-fluorophenylthio)-4-(4-methylpiperazin-1-yl)butan-2-ylamino)-3-(trifluoromethylsulfonyl)benzenesulfonamide] | 66 nM |
| CN(C)CC[C@H](CSc1ccccc1Cl)Nc1ccc(S(=O)(=O)Nc2ncnc3c2CCN(C2CCN(Cc4ccccc4-c4ccc(Cl)cc4)CC2)C3)cc1S(=O)(=O)C(F)(F)F [Example 40] | 32 nM |
| CC1Cc2c(ncnc2NS(=O)(=O)c2ccc(N[C@H](CCN(C)C)CSc3ccccc3)c(S(=O)(=O)C(F)(F)F)c2)CN1C1CCN(Cc2ccccc2-c2ccc(Cl)cc2)CC1 (stereo in doubt) [Example 49, N-{(R)-7-[1-(4′-Chloro-biphenyl-2-ylmethyl)-piperidin-4-yl]-6-methyl-5,6,7,8-tetrahydro-pyrido[3,4-d]pyrimidin-4-yl}-4-((R)-3-dimethylamino-1-phenylsulfanylmethyl-propylamino)-3-trifluoromethanesulfonyl-benzenesulfonamide] | 33 nM |
| [2H]C1(N2CCc3c(ncnc3NS(=O)(=O)c3ccc(N[C@H](CCN4CCOCC4)CSc4ccccc4)c(S(=O)(=O)C(F)(F)F)c3)C2)CCN([C@@H](C)c2ccccc2-c2ccc(Cl)cc2)CC1 [Example 88] | 2310 nM |
| CN(C)CC[C@H](CSc1ccccc1)Nc1ccc(S(=O)(=O)Nc2nnc3n2CCN(C2CCN(Cc4ccccc4-c4ccc(Cl)cc4)CC2)CC3)cc1S(=O)(=O)C(F)(F)F [Example 93, N-{6-[1-(4′-Chloro-biphenyl-2-ylmethyl)-piperidin-4-yl]-5,6,7,8-tetrahydro-4H-1,2,3a,6-tetraaza-azulen-3-yl}-4-((R)-3-dimethylamino-1-phenyl-sulfanylmethyl-propylamino)-3-trifluoromethanesulfonyl-benzenesulfonamide] | 24 nM |
| CN(C)CC[C@H](CSc1ccccc1Cl)Nc1ccc(S(=O)(=O)Nc2nc(C(F)(F)F)nc3c2CCN(C2CCN(CC4=C(c5ccc(Cl)cc5)CC(C)(C)CC4)CC2)C3)cc1S(=O)(=O)C(F)(F)F [Example 32, (R)-N-(7-(1-((2-(4-chlorophenyl)-4,4-dimethylcyclohex-1-enyl)methyl)piperidin-4-yl)-2-(trifluoromethyl)-5,6,7,8-tetrahydropyrido[3,4-d]pyrimidin-4-yl)-4-(1-(2-chlorophenylthio)-4-(dimethylamino)butan-2-ylamino)-3-(trifluoromethylsulfonyl)benzenesulfonamide] | 87 nM |
| C[C@H](CSc1ccccc1)Nc1ccc(S(=O)(=O)Nc2ncnc3c2CCN(C2CCN(Cc4ccccc4-c4ccc(Cl)cc4)CC2)C3)cc1S(=O)(=O)C(F)(F)F [Example 44, N-(7-(1((4′-chlorobiphenyl-2-yl)-methyl)piperidin-4-yl)-5,6,7,8-tetrahydropyrido[3,4-d]pyrimidin-4-yl)-4-(1-(phenylthio)propan-2-ylamino)-3-(trifluoromethylsulfonyl)benzenesulfonamide] | 235 nM |
| CC#CCOc1ccccc1CN1CCC(N2CCc3c(ncnc3NS(=O)(=O)c3ccc(N[C@H](CCN(C)C)CSc4ccccc4)c(S(=O)(=O)C(F)(F)F)c3)C2)CC1 [Example 46, (R)-N-(7-(1-(2-(but-2-ynyloxy)benzyl)piperidin-4-yl)-5,6,7,8-tetrahydropyrido[3,4-d]pyrimidin-4-yl)-4-(4-(dimethylamino)-1-(phenylthio)butan-2-ylamino)-3-(trifluoromethylsulfonyl)benzenesulfonamide] | 1770 nM |
| [2H]C1(N2CCc3c(ncnc3NS(=O)(=O)c3ccc(N[C@H](CCN(C)C(C)C)CSc4ccccc4)c(S(=O)(=O)C(F)(F)F)c3)C2)CCN(Cc2cc(F)ccc2-c2ccc(Cl)cc2)CC1 [Example 84] | 73 nM |
| CN(C)CC[C@H](CSc1ccccc1Cl)Nc1ccc(S(=O)(=O)Nc2nc(C(F)(F)F)nc3c2CCN(C2CCN(Cc4ccccc4-c4ccc(Cl)cc4)CC2)C3)cc1S(=O)(=O)C(F)(F)F [Example 33, (R)-N-(7-(1-((4′-chlorobiphenyl-2-yl)methyl)piperidin-4-yl)-2-(trifluoromethyl)-5,6,7,8-tetrahydropyrido[3,4-d]pyrimidin-4-yl)-4-(1-(2-chlorophenylthio)-4-(dimethylamino)butan-2-ylamino)-3-(trifluoromethylsulfonyl)benzenesulfonamide] | 73 nM |
| CC(c1ccccc1-c1ccc(Cl)cc1)N1CCC(N2CCc3c(ncnc3NS(=O)(=O)c3ccc(N[C@H](CCN4CCOCC4)CSc4ccccc4)c(S(=O)(=O)C(F)(F)F)c3)C2)CC1 (stereo partly drawn) [Example 42, N-(7-(1-(1-(4′chlorobiphenyl-2-yl)ethyl)piperidin-4-yl)-5,6,7,8-tetrahydropyrido[3,4-d]pyrimidin-4-yl)-4-((R)-4-morpholino-1-(phenylthio)butan-2-ylamino)-3-(trifluoromethylsulfonyl)benzenesulfonamide] | 97 nM |
| CN(C)CC[C@H](CSc1cccc(Cl)c1)Nc1ccc(S(=O)(=O)Nc2ncnc3c2CCN(C2CCN(Cc4ccccc4-c4ccc(F)cc4)CC2)C3)cc1S(=O)(=O)C(F)(F)F [Example 57, N-{7-[1-(4′-Fluoro-biphenyl-2-ylmethyl)-piperidin-4-yl]-5,6,7,8-tetrahydro-pyrido[3,4-d]pyrimidin-4-yl}-4-[(R)-1-(3-chloro-phenylsulfanylmethyl)-3-dimethylamino-propylamino]-3-trifluoromethanesulfonyl-benzenesulfonamide] | 99 nM |
| CN(C)CC[C@H](CSc1ccccc1)Nc1ccc(S(=O)(=O)Nc2ncnc3c2CCN(C2CCN(Cc4ccccc4-c4ccc(Cl)cc4)CC2F)C3)cc1S(=O)(=O)C(F)(F)F (stereo partly drawn) [Example 66, N-(7-(1-((4′-chlorobiphenyl-2-yl)methyl)-3-fluoropiperidin-4-yl)-5,6,7,8tetrahydropyrido[3,4-d]pyrimidin-4-yl)-4-((R)-4-(dimethylamino)-1-(phenylthio)butan-2-ylamino)-3-(trifluoromethylsulfonyl)benzenesulfonamide] | 36 nM |
